Data reported in patent US20080058324A1, “Alpha-Keto Carbonyl Calpain Inhibitors” (SANTHERA PHARMACEUTICALS (SCHWEIZ) AG, priority 2004, published 2008).
pEC50, pIC50: −log10 of the molar value.

What was measured:
[1] = target: T1, human μ-calpain (Homo sapiens, UniProt P07384); experiment: Enzymatic Calpain Inhibition Assay; type: biochemical; settings: read-out: Calp I IC50
T1 construct: purchased Calbiochem
T1 sequence (P07384 1-714): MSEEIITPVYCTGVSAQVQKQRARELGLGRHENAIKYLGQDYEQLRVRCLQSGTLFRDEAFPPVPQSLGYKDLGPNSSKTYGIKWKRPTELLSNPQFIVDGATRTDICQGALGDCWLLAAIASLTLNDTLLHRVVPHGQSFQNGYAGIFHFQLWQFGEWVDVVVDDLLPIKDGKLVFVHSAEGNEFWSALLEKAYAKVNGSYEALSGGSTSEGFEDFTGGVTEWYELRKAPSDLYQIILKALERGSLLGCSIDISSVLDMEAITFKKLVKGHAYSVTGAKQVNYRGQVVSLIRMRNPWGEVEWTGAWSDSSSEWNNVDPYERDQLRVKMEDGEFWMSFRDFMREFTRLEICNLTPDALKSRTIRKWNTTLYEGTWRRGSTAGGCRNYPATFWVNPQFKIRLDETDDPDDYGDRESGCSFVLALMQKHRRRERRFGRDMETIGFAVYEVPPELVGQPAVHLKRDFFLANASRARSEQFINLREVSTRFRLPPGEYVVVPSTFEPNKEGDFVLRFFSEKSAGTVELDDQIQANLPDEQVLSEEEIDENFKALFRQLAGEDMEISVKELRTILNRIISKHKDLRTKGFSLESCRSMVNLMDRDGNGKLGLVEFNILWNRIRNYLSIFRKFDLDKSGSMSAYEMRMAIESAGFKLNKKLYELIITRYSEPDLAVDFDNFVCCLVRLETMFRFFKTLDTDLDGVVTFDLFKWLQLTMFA
T1 sequence (P04632 1-268 partner): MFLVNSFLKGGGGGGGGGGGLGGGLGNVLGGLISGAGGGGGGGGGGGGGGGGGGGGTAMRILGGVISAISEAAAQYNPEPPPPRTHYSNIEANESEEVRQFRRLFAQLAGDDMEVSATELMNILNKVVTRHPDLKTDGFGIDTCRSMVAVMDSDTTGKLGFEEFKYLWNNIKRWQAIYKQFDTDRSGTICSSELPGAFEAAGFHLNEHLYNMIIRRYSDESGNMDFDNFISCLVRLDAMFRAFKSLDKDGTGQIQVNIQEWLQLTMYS
Experimental: The Ki value was also determined in some cases. These criteria were used to measure the inhibitory effect of the compounds (I) on calpain I, calpain II and cathepsin B.
The inhibitory properties of calpain inhibitors are tested in 100 μl of a buffer containing 100 mM imidazole pH 7.5, 5 mM L-Cystein-HCl, 5 mM CaCl2, 250 μM of the calpain fluorogenic substrate Suc-Leu-Tyr-AMC (Sigma) (Sasaki et al., J. Biol. Chem., 1984, 259, 12489-12949) dissolved in 2.5 μl DMSO and 0.5 μg of human μ-calpain (Calbiochem). The inhibitors dissolved in 1 μl DMSO are added to the reaction buffer. The fluorescence of the cleavage product 7-amino-4-methylcoumarin (AMC) is followed in a SPECTRAmax GEMINI XS (Molecular Device) fluorimeter at λex=360 nm and λem=440 nm at 30° C. during 30 min at intervals of 30 sec in 96-well plates (Greiner). The initial reaction velocity at different inhibitor concentrations is plotted against the inhibitor concentration and the IC50 values determined graphically.

[2] = system: cellular calpains in C2C12 myoblasts; experiment: Calpain Inhibition Assay in C2C12 Myoblasts; type: cell-based; settings: read-out: Calp I IC50 Myoblast
Experimental: This assay is aimed at monitoring the ability of the substance to inhibit cellular calpains. C2C12 myoblasts are grown in 96-well plates in growth medium (DMEM, 20% foetal calf serum) until they reach confluency. The growth medium is then replaced by fusion medium (DMEM, 5% horse serum). 24 hours later the fusion medium is replaced by fusion medium containing the test substances dissolved in 1 μl DMSO. After 2 hours of incubation at 37° C. the cells are loaded with the calpain fluorogenic substrate Suc-Leu-Tyr-AMC at 400 μM in 50 μl of a reaction buffer containing 135 mM NaCl; 5 mM KCl; 4 mM CaCl2; 1 mM MgCl2; 10 mM Glucose; 10 mM HEPES pH 7.25 for 20 min at room temperature. The calcium influx, necessary to activate the cellular calpains, is evoked by the addition of 50 μl reaction buffer containing 20 μM of the calcium ionophore Br-A-23187 (Molecular Probes). The fluorescence of the cleavage product AMC is measured as described above during 60 min at 37° C. at intervals of 1 min. The IC50 values are determined as described above. Comparison of the IC50 determined in the enzymatic calpain inhibition assay to the IC50 determined in the C2C12 myoblasts calpain inhibiton assay, allows to evaluate the cellular uptake or the membrane permeability of the substance.

[3] = system: Primary fibroblasts from donors with Friedreich Ataxia (FRDA); experiment: BSO Assay (cell viability of Friedreich Ataxia fibroblasts under BSO oxidative stress); type: cell-based; settings: Homo sapiens, Fibroblast
Experimental: Primary fibroblasts were derived from donors with molecular diagnosis for Friedreich Ataxia (FRDA) and control donors with no mitochondrial disease. Cell lines were obtained from Coriell Cell Repositories (Camden, N.J.; catalog numbers GM04078, GM08402 and GM08399 respectively). All cell types were diagnosed on the molecular level for intronic GAA triplet repeat length of at least 400-450 repeats using a PCR-based method. Experiments were carried out as described in the literature (M. L. Jauslin et al., Human Mol. Genet., 2002, 11, 3055-3063): Cells were seeded in microtiter plates at a density of 4′000 cells per 100 μl in growth medium consisting of 25% (v/v) M199 EBS and 64% (v/v) MEM EBS without phenol red (Bioconcept, Allschwil, Switzerland) supplemented with 10% (v/v) fetal calf serum (PAA Laboratories, Linz, Austria), 100 U/ml penicillin, 100 μg/ml streptomycin (PAA Laboratories, Linz, Austria), 10 μg/ml insulin (Sigma, Buchs, Switzerland), 10 ng/ml EGF (Sigma, Buchs, Switzerland), 10 ng/ml bFGF (PreproTech, Rocky Hill, N.J.) and 2 mM glutamine (Sigma, Buchs, Switzerland). The cells were incubated in the presence of various test compounds for 24 h before addition of L-buthionine-(S,R)-sulfoximine (BSO) to a final concentration of 1 mM. Cell viability was measured after the first signs of toxicity appeared in the BSO-treated controls (typically after 16 to 48 h). The cells were stained for 60 min at room temperature in PBS with 1.2 μM calceinAM and 4 μM ethidium homodimer (Live/Dead assay, Molecular Probes, Eugene, Oreg.). Fluorescence intensity was measured with a Gemini Spectramax XS spectrofluorimeter (Molecular Devices, Sunnyvale, Calif.) using excitation and emission wavelengths of 485 nm and 525 nm respectively.

pIC50 [1] | pIC50 [2] | Structure (SMILES) | pEC50 [3]
6.52 | 6.82 | CCNC(=O)C(=O)C(Cc1ccc(Cl)cc1)NC(=O)C(NC(=O)C(Cc1cccc2ccccc12)NC(=O)CCCCc1cccs1)C(C)C (stereo not drawn) [Example 22] | 8.00
7.35 | 7.30 | CCNC(=O)C(=O)[C@H](Cc1ccc(Cl)cc1)NC(=O)[C@@H](NC(=O)[C@H](Cc1ccccc1)NC(=O)CCCCc1cccs1)C(C)C [Example 1] | 6.15
7.82 | 8.00 | CCNC(=O)C(=O)C(Cc1ccc(OC)cc1)NC(=O)C(NC(=O)C(CCc1ccccc1)NC(=O)CCc1cccs1)C(C)C (stereo not drawn) [Example 520] | > 9.00
